Assay results from ChEMBL document CHEMBL1136851, “Identification of 4-hydroxyquinolines inhibitors of p300/CBP histone acetyltransferases” (Bioorg Med Chem Lett, 2009).
Active and inactive are the calls of the source. No cut-off for these calls is given here.

What was measured:
[1] = test system: U-937; test: Induction of cell differentiation in human U937 cells assessed as cytodifferentiation at 20 uM after 24 hrs by CD11c/PI method; type: functional, cell-based
[2] = test system: U-937; test: Cell cycle arrest in human U937 cells assessed as loss of accumulation at G2 phase at 20 nM after 24 hrs; type: functional, cell-based
[3] = test system: U-937; test: Inhibition of SAHA-induced alpha tubulin acetylation in human U937 cells at 100 uM after 4 hrs by Western blot analysis; type: functional, cell-based
[4] = target: Histone acetyltransferase KAT2A (Homo sapiens) (UniProt Q92830); test: Inhibition of human histone acetyltransferase GCN5 in U937 cell nuclear extracts assessed as remaining enzyme activity at 50 uM; type: cell-free; conditions: U-937
Sequence of Histone acetyltransferase KAT2A (Homo sapiens) (Q92830 2-837 limits assumed): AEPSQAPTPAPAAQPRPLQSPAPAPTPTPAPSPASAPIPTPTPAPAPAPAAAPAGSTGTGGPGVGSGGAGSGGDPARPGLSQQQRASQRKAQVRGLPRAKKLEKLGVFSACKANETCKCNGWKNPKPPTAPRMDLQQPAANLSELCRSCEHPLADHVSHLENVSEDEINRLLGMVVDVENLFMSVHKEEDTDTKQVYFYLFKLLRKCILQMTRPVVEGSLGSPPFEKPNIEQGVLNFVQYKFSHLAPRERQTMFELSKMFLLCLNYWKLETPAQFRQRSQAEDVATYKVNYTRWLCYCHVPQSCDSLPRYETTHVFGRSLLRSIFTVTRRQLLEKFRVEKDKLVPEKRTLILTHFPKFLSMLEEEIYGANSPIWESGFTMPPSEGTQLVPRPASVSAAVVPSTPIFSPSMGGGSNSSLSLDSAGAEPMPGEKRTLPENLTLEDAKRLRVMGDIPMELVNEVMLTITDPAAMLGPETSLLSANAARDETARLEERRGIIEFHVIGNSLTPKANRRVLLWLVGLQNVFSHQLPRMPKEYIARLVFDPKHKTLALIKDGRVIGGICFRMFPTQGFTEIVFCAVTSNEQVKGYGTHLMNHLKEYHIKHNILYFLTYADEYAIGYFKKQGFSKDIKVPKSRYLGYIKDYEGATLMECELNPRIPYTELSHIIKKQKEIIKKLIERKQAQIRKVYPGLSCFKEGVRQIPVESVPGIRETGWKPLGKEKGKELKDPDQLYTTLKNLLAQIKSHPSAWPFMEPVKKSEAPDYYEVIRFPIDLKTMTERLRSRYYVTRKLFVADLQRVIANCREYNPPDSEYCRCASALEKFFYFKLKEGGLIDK

[5] = target: Histone acetyltransferase KAT2B (Homo sapiens) (UniProt Q92831); test: Inhibition of human GST-fused histone acetyltransferase PCAF in U937 cell nuclear extracts assessed as remaining enzyme activity at 50 uM; type: cell-free; conditions: U-937
Sequence of Histone acetyltransferase KAT2B (Homo sapiens) (Q92831 whole entry, looked up, the tested form may be a part): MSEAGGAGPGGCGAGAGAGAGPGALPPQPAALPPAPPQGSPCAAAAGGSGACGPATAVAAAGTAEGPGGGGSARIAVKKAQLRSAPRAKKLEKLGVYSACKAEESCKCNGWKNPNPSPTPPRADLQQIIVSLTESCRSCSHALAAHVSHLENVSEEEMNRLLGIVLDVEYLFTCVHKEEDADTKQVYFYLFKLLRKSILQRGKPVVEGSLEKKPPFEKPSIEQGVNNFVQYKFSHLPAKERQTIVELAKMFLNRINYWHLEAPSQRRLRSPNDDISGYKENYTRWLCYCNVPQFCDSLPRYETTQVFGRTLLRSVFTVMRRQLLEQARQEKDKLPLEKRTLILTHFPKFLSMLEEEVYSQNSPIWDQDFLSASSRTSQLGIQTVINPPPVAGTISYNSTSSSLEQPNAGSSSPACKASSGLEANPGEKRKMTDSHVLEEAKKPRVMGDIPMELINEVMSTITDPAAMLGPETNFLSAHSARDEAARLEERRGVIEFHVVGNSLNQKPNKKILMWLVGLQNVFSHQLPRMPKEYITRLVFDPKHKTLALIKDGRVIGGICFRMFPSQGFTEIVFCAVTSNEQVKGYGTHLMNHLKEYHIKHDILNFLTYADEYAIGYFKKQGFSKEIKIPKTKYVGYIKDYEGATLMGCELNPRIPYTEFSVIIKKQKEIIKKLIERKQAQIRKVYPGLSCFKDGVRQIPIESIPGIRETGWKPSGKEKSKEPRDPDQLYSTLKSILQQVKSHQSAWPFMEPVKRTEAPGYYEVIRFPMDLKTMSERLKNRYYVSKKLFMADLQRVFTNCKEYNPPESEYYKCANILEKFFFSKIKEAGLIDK

[6] = target: Histone acetyltransferase p300 (Homo sapiens) (UniProt Q09472); test: Inhibition of human immunoprecipitated histone acetyltransferase p300 in U937 cell nuclear extracts assessed as remaining enzyme activity at 50 uM; type: cell-free; conditions: U-937
Sequence of Histone acetyltransferase p300 (Homo sapiens) (Q09472 whole entry, the tested form may be a part): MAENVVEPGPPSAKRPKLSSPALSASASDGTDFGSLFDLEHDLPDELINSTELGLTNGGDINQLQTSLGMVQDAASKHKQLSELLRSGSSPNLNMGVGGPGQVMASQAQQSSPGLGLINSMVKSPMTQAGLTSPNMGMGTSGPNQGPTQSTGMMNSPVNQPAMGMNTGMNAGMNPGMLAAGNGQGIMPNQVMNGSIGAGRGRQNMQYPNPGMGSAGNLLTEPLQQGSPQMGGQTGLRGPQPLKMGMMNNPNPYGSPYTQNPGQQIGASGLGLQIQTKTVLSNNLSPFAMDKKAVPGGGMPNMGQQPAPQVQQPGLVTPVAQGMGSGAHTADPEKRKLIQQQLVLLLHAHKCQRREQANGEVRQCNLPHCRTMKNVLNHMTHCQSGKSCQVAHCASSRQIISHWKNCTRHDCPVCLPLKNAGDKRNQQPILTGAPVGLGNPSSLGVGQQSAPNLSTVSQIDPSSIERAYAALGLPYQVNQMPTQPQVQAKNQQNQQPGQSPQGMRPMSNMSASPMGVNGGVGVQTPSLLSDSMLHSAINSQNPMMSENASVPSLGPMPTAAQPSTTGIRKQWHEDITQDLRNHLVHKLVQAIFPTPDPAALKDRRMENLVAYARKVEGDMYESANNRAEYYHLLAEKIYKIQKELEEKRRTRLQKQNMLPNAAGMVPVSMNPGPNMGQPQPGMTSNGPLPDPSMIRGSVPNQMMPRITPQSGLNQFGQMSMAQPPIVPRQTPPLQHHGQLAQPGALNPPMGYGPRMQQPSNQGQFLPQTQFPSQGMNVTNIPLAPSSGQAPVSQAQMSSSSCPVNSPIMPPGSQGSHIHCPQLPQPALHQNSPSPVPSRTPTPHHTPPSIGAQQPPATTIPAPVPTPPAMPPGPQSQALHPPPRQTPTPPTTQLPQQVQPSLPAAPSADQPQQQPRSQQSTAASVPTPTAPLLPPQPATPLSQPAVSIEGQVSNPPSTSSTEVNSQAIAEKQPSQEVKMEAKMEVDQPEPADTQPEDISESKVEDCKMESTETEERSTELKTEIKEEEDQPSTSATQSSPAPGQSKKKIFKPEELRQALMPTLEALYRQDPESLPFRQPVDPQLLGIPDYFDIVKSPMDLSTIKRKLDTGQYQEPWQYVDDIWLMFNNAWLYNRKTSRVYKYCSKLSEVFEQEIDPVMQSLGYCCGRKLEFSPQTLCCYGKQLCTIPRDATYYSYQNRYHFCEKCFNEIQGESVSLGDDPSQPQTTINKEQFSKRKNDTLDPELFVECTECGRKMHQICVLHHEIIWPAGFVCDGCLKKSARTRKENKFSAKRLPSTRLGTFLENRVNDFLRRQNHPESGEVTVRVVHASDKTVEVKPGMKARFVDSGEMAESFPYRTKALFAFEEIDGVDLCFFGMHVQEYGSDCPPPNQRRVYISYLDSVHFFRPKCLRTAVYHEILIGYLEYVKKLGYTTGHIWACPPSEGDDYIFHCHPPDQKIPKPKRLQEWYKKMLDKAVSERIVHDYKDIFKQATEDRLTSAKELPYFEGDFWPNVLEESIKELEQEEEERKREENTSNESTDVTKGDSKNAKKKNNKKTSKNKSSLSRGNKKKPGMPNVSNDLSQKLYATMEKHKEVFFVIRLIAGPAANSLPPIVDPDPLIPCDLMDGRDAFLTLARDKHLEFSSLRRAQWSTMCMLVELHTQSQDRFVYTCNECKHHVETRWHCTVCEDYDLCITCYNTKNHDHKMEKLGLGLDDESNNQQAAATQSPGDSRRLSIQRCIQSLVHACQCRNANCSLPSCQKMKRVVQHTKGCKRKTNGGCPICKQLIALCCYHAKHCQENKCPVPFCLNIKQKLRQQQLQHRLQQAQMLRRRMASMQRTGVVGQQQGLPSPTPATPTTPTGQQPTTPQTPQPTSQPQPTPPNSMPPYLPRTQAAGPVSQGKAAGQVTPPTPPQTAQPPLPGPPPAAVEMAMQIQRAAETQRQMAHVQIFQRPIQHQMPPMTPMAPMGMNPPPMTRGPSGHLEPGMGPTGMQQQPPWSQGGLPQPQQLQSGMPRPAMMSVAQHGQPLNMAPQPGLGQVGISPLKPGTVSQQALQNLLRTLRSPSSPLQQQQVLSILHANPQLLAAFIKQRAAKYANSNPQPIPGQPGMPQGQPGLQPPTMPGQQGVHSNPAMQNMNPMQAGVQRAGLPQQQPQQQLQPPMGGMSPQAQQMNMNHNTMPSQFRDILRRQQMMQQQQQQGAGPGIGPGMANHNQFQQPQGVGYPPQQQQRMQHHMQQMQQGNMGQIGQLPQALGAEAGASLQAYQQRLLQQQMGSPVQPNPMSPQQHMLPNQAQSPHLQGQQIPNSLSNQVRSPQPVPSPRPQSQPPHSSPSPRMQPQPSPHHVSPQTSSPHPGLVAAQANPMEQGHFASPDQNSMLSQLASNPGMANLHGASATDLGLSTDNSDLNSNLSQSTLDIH

[7] = target: CREB-binding protein (Homo sapiens) (UniProt Q92793); test: Inhibition of human GST-fused histone acetyltransferase CBP in U937 cell nuclear extracts assessed as remaining enzyme activity at 50 uM; type: cell-free; conditions: U-937
[8] = test system: U-937; test: Inhibition of SAHA-induced histone H3 acetylation in human U937 cells at 100 uM after 4 hrs by Western blot analysis; type: functional, cell-based
[9] = test system: U-937; test: Cell cycle arrest in human U937 cells assessed as accumulation at G1/S phase at 20 nM after 24 hrs; type: functional, cell-based
[10] = test system: U-937; test: Inhibition of human histone acetyltransferase in U937 cell nuclear extracts at 50 uM; type: cell-free
[11] = test system: U-937; test: Induction of apoptosis in human U937 cells at 100 uM by annexin V/propidium iodide double staining; type: functional, cell-based
[12] = test system: U-937; test: Induction of apoptosis in human U937 cells at 20 uM by annexin V/propidium iodide double staining; type: functional, cell-based

Structure (SMILES)	Activity [4]	Activity [5]	Activity [6]	Activity [7]	Activity [1]	Activity [2]	Activity [3]	Activity [8]	Activity [9]	inhibition [10]	Activity [11]	Activity [12]
CCOC(=O)c1c(C)nc2ccccc2c1O	97.4%	81.7%	16.4%	13.4%	Active	inactive	inactive	Active	inactive	–	–	–
CCCCCCCCCCCCCCCc1nc2ccccc2c(O)c1C(=O)OCC	96.8%	82.4%	39.8%	116%	Active	Active	Active	Active	Active	–	Active	Active
C=CC/C=C\C/C=C\CCCCCCCc1cccc(O)c1C(=O)O	113%	52.1%	53.1%	44%	–	–	–	–	–	15%	–	–
CCCCCCCCCCCCCCCc1nc2ccccc2c(O)c1C(=O)O	103%	62.7%	46.9%	14.4%	Active	inactive	Active	Active	inactive	–	–	–
Cc1nc2ccccc2c(O)c1C(=O)O	97.4%	104%	11.4%	20.5%	Active	inactive	Active	Active	inactive	–	–	–
CCCCCCCCCCc1nc2ccccc2c(O)c1C(=O)OCC	93.4%	90.1%	39.1%	93.4%	Active	Active	inactive	Active	Active	–	Active	Active

Continued, in another order:

Activity [4]	Activity [5]	Activity [6]	Activity [7]	Structure (SMILES)	Activity [1]	Activity [2]	Activity [3]	Activity [8]	Activity [9]	inhibition [10]	Activity [11]	Activity [12]
95.4%	91.5%	53.9%	13.2%	CCCCCCCCCCc1nc2ccccc2c(O)c1C(=O)O	Active	inactive	Active	Active	inactive	–	–	–
98%	103%	82%	19%	CCCCCc1nc2ccccc2c(O)c1C(=O)O	Active	inactive	Active	Active	inactive	30%	–	–
54.5%	76.8%	58.6%	45.9%	C=C1C(=O)O[C@H](CCC)[C@H]1C(=O)O	–	–	–	–	–	44%	–	–
102%	100%	47.7%	91.2%	CCCCCc1nc2ccccc2c(O)c1C(=O)OCC	Active	inactive	Active	Active	inactive	–	–	–
